Experimental data from PubChem BioAssay AID720588 (Broad Institute, 2013).
The source made the active and inactive calls.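 How the source made its calls: active means fitted curve falls past a set limit of signal loss at no more than twice the top dose; inconclusive means flat fit between 30 and 70% signal loss, or poor fit; inactive means signal rise, flat within 30%, or crossing too high.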

Test: ATP-based viability loss in HEK293T cells – cell-based, CellTiter-Glo luminescence, cherry-pick, set 3, cytotoxicity control, dose response (AID 720588)
Conditions: HEK293T viability, CellTiter-Glo ATP luminescence, 72 h; at 8 µM (top of the series)

Row | SMILES | activity change, negative = cytotoxicity
1 | C[C@H](CO)N1C[C@H](C)[C@H](CN(C)Cc2ccc(C(F)(F)F)cc2)Oc2ccc(NC(=O)CCCCCC(=O)Nc3ccccc3N)cc2CC1=O | 50% (inactive)

Same assay, conditions: HEK293T viability, CellTiter-Glo ATP luminescence, 72 h; at 23.5 µM (top of the series)

Row | SMILES | activity change, negative = cytotoxicity
2 | COC(=O)C[C@@H]1CC[C@@H]2[C@@H](COc3ccc(NC(=O)Nc4ccccc4C)cc3C(=O)N2C)O1 | 19.2% (inactive)

Same assay, conditions: HEK293T viability, CellTiter-Glo ATP luminescence, 72 h; at 26 µM (top of the series)

Row | SMILES | activity change, negative = cytotoxicity
3 | COC(=O)C[C@@H]1CC[C@@H]2[C@H](COc3ccc(NC(=O)c4cc(F)cc(F)c4)cc3C(=O)N2C)O1 | -1.07% (inactive)
4 | COCCCNc1ccn2nc(-c3ccccc3)cc2n1 | -27.1% (inactive)
5 | COc1ccc(/C=C2\SC(=S)N(CCCC(=O)NNC(=O)c3ccccc3O)C2=O)cc1 | 13.3% (inactive)
6 | COc1ccc2cc(C(N)=O)/c(=N\NC(=O)c3ccccc3)oc2c1 | -13.7% (inactive)
7 | CC(=NNc1ccc2ccccc2n1)c1ccccc1O | -9.29% (inactive)
8 | O=C(CNC(=O)Cc1ccccc1)N=Nc1c(O)n(Cc2ccc3c(c2)OCO3)c2ccccc12 | -23.2% (inactive)
9 | Cc1nc2ncccn2c1-c1csc(Nc2ccc(O)cc2)n1 | 23.7% (inactive)
10 | COc1cccc(OC)c1C(=O)Nc1cc(C)nn1-c1nc2ccccc2[nH]1 | -11.9% (inactive)
11 | COC(=O)C[C@@H]1CC[C@@H]2[C@@H](COc3ccc(NC(=O)Nc4cccc(C#N)c4)cc3C(=O)N2C)O1 | 16.9% (inactive)
12 | N#CC1=C(N)Oc2cc(N)ccc2C1c1cccc(F)c1 (configuration not stated) | -13.6% (inactive)
13 | O=C(O)c1cccc(N/N=C/c2ccc(OC(F)(F)F)cc2)c1 | 11.3% (inactive)
14 | CCOC(=O)C1CCCCN1C(=O)CCc1c(C)nc2cc(-c3ccccc3)nn2c1C (configuration not stated) | -10.8% (inactive)
15 | N=c1ccn2c(n1)O[C@H]1[C@H](O)[C@@H](CO)O[C@H]12 | -7.04% (inactive)
16 | Nc1ccc(Oc2ccccc2-c2ccccc2)cc1 | -8.94% (inactive)
17 | CC1(C)Oc2cc3oc(-c4cc(O)cc(O)c4)cc3cc2CC1O (configuration not stated) | -1.31% (inactive)
18 | COC(=O)C[C@@H]1CC[C@H]2[C@H](COc3ccc(NC(=O)Nc4cc(C)cc(C)c4)cc3C(=O)N2C)O1 | -2.27% (inactive)
19 | COc1ccc(N=C(NN)c2ccc3ccccc3n2)cc1 | -17.4% (inactive)
20 | CCCCNC1=CC(=O)C(=O)c2ccccc21 | -32.1% (inactive)
21 | Nc1ccc2c(c1)OC1(CCCC1)O2 | -16.1% (inactive)
22 | Cc1cc(-c2nc3ccccc3s2)ccc1N | -28% (inactive)
23 | O=C(NC(=O)c1ccccc1)Nc1ccccc1 | -31.5% (inactive)
24 | C[C@@H]1CN([C@@H](C)CO)C(=O)Cc2cc(NC(=O)C3CCCCC3)ccc2O[C@H]1CN(C)Cc1ccc(C(=O)Nc2ccccc2N)cc1 | 7.97% (inactive)
25 | O=C(Nc1ccc(OC(=O)N2CCCCC2)cc1)N1CCOCC1 | -2.87% (inactive)
26 | C[C@H]1CN([C@@H](C)CO)C(=O)c2cc(NS(=O)(=O)c3ccc(Cl)cc3)ccc2O[C@H]1CN(C)Cc1ccc(C(=O)Nc2ccccc2N)cc1 | -0.354% (inactive)
27 | COc1ccc(C2=Nn3c(nnc3-c3ccccc3F)SC2)cc1OC1CCOC1 (configuration not stated) | -7.39% (inactive)
28 | COC(=O)C[C@@H]1CC[C@@H]2[C@H](COc3ccc(NC(=O)c4ccc(C(F)(F)F)cc4)cc3C(=O)N2C)O1 | -2.65% (inactive)
29 | CC(=O)c1ccc(N(C(=O)Cn2nnc3ccccc32)C(C(=O)NCc2ccccc2)c2ccccn2)cc1 (configuration not stated) | -21.8% (inactive)
30 | CC(C)(C)C(=O)Nc1ccc(N=Nc2ccccc2)cc1 | -5.33% (inactive)
31 | CC(Oc1cccc(Cl)c1)C(=O)NCCCCc1ccccc1 (configuration not stated) | -2.08% (inactive)
32 | COc1ccc(NC(=O)c2cc3ccccc3oc2=O)cc1 | -17.4% (inactive)
